Results published in US20060178415A1, “Azole derivatives as antifungal agents” (priority 2002, published 2006).
Values after ≈ are worked out from the molar mass of the structure shown. Like-named read-outs stand apart in the source and are kept apart here.

How the values were obtained:
[1] = target: T1, ergosterol P^450DM in C. albicans lysates (Candida albicans, UniProt P10613); conditions: cited from earlier work
T1 construct: host or cells: C. albicans lysate

[2] = system: ergosterol P^450DM in A. fumigatus lysates; conditions: cited from earlier work
A. fum. = experiment: In vitro antifungal MIC, NCCLS M38P broth method in RPMI 1640/MOPS pH 7; type: cell-based, Aspergillus fumigatus; conditions: Aspergillus fumigatus
Source text: The in vitro evaluation of the antifungal activity of the compound of this invention (as shown in Table I) can be performed by determining the minimum inhibitory concentration (MIC) which is the concentration of the test compound in Rosewell Park Memorial Institute (RPMI) 1640 liquid medium buffered with 3-(Morpholino)propane sulfonic acid (MOPS) to pH 7, at which there is significant inhibition of the particular fungi. In practice the National Committee for Clinical Laboratory Standard (NCCLS) M27A document for Candida and Cryptococcus and M38P for Aspergillus was used to determine the MIC and readings recorded only when the Quality Control results fell into the acceptable range. After MIC results had been recorded, 100 μL from each of the well showing no growth was spread over Sabouraud Dextrose Agar (SDA) to determine the minimum fungicidal concentration (MFC).

[3] = A. fumigatus strain 1008, RPMI 1640, MOPS pH 7, read-out: MIC (A. fum.) 1008
[4] = A. fumigatus strain Si-l, RPMI 1640, MOPS pH 7, read-out: MIC (A. fum.) Si-l
[5] = pH 7, read-out: MIC (A. fum.) 1008
[6] = pH 7, read-out: MIC (A. fum.) Si-l

T1 sequence (P10613 whole entry): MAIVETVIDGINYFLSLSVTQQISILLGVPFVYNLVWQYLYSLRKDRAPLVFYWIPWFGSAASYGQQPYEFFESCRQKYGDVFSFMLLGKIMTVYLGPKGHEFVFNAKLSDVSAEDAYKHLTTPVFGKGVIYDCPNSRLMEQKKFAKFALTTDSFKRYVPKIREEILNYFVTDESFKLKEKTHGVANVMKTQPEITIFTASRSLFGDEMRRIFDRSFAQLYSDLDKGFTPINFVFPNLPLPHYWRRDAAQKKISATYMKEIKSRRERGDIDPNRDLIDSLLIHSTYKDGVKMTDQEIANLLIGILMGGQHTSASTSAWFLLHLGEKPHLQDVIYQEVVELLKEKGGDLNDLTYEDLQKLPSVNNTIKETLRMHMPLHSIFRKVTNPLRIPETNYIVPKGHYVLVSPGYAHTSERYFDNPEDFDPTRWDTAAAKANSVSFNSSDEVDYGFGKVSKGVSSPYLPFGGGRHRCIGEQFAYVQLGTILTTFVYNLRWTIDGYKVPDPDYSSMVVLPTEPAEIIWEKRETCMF

In the case of C[C@@H](c1ncncc1F)[C@](O)(Cn1cncn1)c1ccc(F)cc1F [Voriconazole], the “fold greater inhibition of ergosterol P450DM compared to fluconazole” value [1] is listed as 1.6 fold and the “fold greater inhibition of ergosterol P450DM compared to fluconazole” value [2] is listed as 160 fold.

In the case of C[C@@H](N(N)C(=S)Nc1ccc(OC(F)(F)F)cc1)[C@](O)(Cn1cncn1)c1ccc(F)cc1F [Compound No. 34, 2-[(1R,2R)-2-(2,4-Difluorophenyl)-2-hydroxy-1-methyl-3-(1H-1,2,4-triazol-1-yl)propyl]-4-[4-trifluoromethoxyphenyl]thiosemicarbazide], the MIC (A. fum.; [3]) was 2 µg/mL (≈ 3.98 µM) and the MIC (A. fum.; [4]) was 2 µg/mL (≈ 3.98 µM).

In the case of C[C@@H](N(NC(=O)OC(C)(C)C)C(=O)Nc1ccc(OCC(F)(F)C(F)F)cc1)[C@](O)(Cn1cncn1)c1ccc(F)cc1F [Compound No. 26, 1-t-Butoxycarbonyl-2-[(1R,2R)-2-(2,4-difluorophenyl)-2-hydroxy-1-methyl-3-(1H-1,2,4-triazol-1-yl)propyl]-4-[4(2,2,3,3-tetrafluoropropoxy)phenyl]semicarbazide], the MIC (A. fum.; [3]) was > 16 µg/mL and the MIC (A. fum.; [4]) was > 16 µg/mL.

For C[C@@H](n1ncn(-c2ccc(OCC(F)(F)C(F)F)cc2)c1=S)[C@](O)(Cn1cncn1)c1ccc(F)cc1F [Compound No. 42, 2-[(1R,2R)-2-(2,4-difluorophenyl)-2-hydroxy-1-methyl-3-(1,2,4-triazol-1-yl)propyl]-4-[4-(2,2,3,3-tetrafluoropropoxy)phenyl]-(2H,4H)-1,2,4-triazol-3-thione], the MIC (A. fum.; [3]) was 0.25 µg/mL (≈ 0.448 µM) and the MIC (A. fum.; [4]) was 0.125 µg/mL (≈ 0.224 µM).

Work on C[C@@H](n1ncn(-c2ccc(Cl)cn2)c1=S)[C@](O)(Cn1cncn1)c1ccc(F)cc1F [Compound No. 55, 2-[(1R,2R)-2-(2,4-Difluorophenyl)-2-hydroxy-1-methyl-3-(1H-1,2,4-triazol-1-yl)propyl]-4-[3-chloropyridin-6-yl]-(2H,4H)-1,2,4-triazol-3-thione] yielded an MIC (A. fum.; [3]) of 4 µg/mL (≈ 8.62 µM) and an MIC (A. fum.; [4]) of 2 µg/mL (≈ 4.31 µM).

With C[C@@H](N(N)C(=O)Nc1ccc(Cl)cc1)[C@](O)(Cn1cncn1)c1ccc(F)cc1F [Compound No. 28, 2-[(1R,2R)-2-(2,4-difluorophenyl)-2-hydroxy-1-methyl-3-(1H-1,2,4-triazol-1-yl)propyl]-4-[4-chlorophenyl]semicarbazide] the MIC (A. fum.; [5]) was > 16 µg/mL and the MIC (A. fum.; [6]) was > 16 µg/mL.

With C[C@@H](n1ncn(-c2ccc(O)cc2)c1=S)[C@](O)(Cn1cncn1)c1ccc(F)cc1F [Compound No. 41, 2-[(1R,2R)-2-(2,4-difluorophenyl)-2-hydroxy-1-methyl-3-(1,2,4-triazol-1-yl)propyl]-4-[4-hydroxyphenyl]-(2H,4H)-1,2,4-triazol-3-thione] the MIC (A. fum.; [5]) was > 16 µg/mL and the MIC (A. fum.; [6]) was > 16 µg/mL.
